Assays:
CYPES = test: Post-emergence application in field trials (Examples 2 and 3); format: in vivo, Cyperus esculentus; conditions: B-1 12.5 g ai/ha, 21 DAT, height 15-23 cm, 140 l/ha water, 1% MSO + 2.5% ammoniumsulfate
Protocol: (§1) In the examples below, using the method of S. R. Colby (1967) “Calculating synergistic and antagonistic responses of herbicide combinations”, Weeds 15, p. 22ff., the value E, which is expected if the activity of the individual active compounds is only additive, was calculated.
(§2) [formula] • where • X=percent activity using active herbicide A at an application rate a; • Y=percent activity using active saflufenacil at an application rate b; • E=expected activity (in %) by A+B at application rates a+b.
(§3) If the value found experimentally is higher than the value E calculated according to Colby, a synergistic effect is present.
(§4) On field test sites, natural weed infestation or seeded weeds were treated post-emergence of the weeds.
(§5) For the post emergence treatment, the weedy plants were treated as indicated below. The herbicidal compositions were, together with the adjuvant(s) as indicated, suspended or emulsified in water (200 l/ha unless indicated otherwise) as distribution medium and sprayed with commercial flat fan nozzles.
(§6) In the following experiments, the herbicidal activity for the individual herbicidal compositions (solo and mixture applications) was assessed the indicated days after treatment (DAT). The assessments for the damage on undesired weeds caused by the composition was carried out using a scale from 0 to 100%, compared to the untreated control plants. […]

SETFA = test: Post-emergence application in greenhouse trials; format: in vivo, Setaria faberi; conditions: 7 DAT, growth stage 13, 1% MSO
Protocol: as §1, §2, §3
(§7) The culture containers used were plastic pots containing loamy sand with approximately 3.0% of humus as substrate. The seeds of the test plants were sown separately for each species.
(§8) For the post-emergence treatment, the test plants were grown to a plant height of from 3 to 15 cm, depending on the plant habit, and only then treated with the active compounds which had been suspended or emulsified in water. To this end, the test plants were either sown directly, and grown in the same containers, or they were first grown separately as seedlings and transplanted into the test containers a few days prior to treatment.
(§9) Depending on the species, the plants were kept at 10-25° C. and 20-35° C., respectively.
(§10) The test period extended over 2 to 4 weeks. During this time, the plants were tended and their response to the individual treatments was evaluated.
(§11) Evaluation was carried out using a scale from 0 to 100. 100 means no emergence of the plants, or complete destruction of at least the above-ground parts, and 0 means no damage or normal course of growth. A good herbicidal activity is given at values of at least 70, and very good herbicidal activity is given at values of at least 85.
(§12) Unless indicated otherwise, herbicide A and saflufenacil were formulated (50 g/I) and applied with addition of 1% MSO (methylated seed oil) as adjuvant. In the greenhouse trials, the solvent used was water (200 I/ha).

BIDPI = test: Post-emergence application in field trials (Examples 2 and 3); format: in vivo, Bidens pilosa; conditions: B-1 25 g ai/ha, 21 DAT, growth stage 12-16, height 5-10 cm, 0.5% MSO
Protocol: as §1, §2, §3, §4, §5, §6

IPOTR = test: as above; format: in vivo, Ipomoea triloba; conditions: growth stage 40-41, height 65-75 cm, B-1 solo 25 g ai/ha, 21 DAT, 1% Dash ® HC
Protocol: as §1, §2, §3, §4, §5, §6

SETIT = test: as above; format: in vivo, Setaria italica; conditions: height 21-31 cm, B-1 solo 25 g ai/ha, 22 DAT, 1% v/v MSO
Protocol: as §1, §2, §3, §4, §5, §6

STEME = test: as above; format: in vivo, Stellaria media; conditions: B-1 12.5 g ai/ha, 21 DAT, growth stage 63-67, height 7-18 cm, 140 l/ha water, 1% MSO + 2.5% ammoniumsulfate
Protocol: as §1, §2, §3, §4, §5, §6

AMATA = test: Post-emergence application in greenhouse trials; format: in vivo, Amaranthus tamariscinus; conditions: 20 DAT, growth stage 14, 1% MSO
Protocol: as §1, §2, §3, §7, §8, §9, §10, §11, §12

AVEFA = test: Post-emergence application in field trials (Examples 2 and 3); format: in vivo, Avena fatua; conditions: 1% v/v MSO
Protocol: as §1, §2, §3, §4, §5
(§13) In the following experiments, the herbicidal activity for the individual herbicidal compositions (solo and mixture applications) was assessed the indicated days after treatment (DAT). The assessments for the damage on undesired weeds caused by the composition was carried out using a scale from 0 to 100%, compared to the untreated control plants. Here, 0 means no damage and 100 means complete destruction of the plants.
(§14) For the post emergence treatment, the weedy plants were treated as indicated below. The herbicidal compositions were, together with the adjuvant(s) as indicated, suspended or emulsified in water (200 I/ha unless indicated otherwise) as distribution medium and sprayed with commercial flat fan nozzles.

LAMAN = test: as above; format: in vivo, Lamium amplexicaule; conditions: height 3-18 cm, B-1 solo 25 g ai/ha, 21 DAT, 1% v/v MSO and 1% AMS (ammonium sulfate)
Protocol: as §1, §2, §3, §4, §5, §6

ECHCG = test: as above; format: in vivo, Echinocloa crus-galli
Protocol: as §1, §2, §3, §4, §5, §13, §14

LOLRI = test: as above; format: in vivo, Lolium rigidum; conditions: growth stage 12-22, B-1 solo 25 g ai/ha, 14 DAT, 1% v/ MSO
Protocol: as §1, §2, §3, §4, §5, §6

[1] = tested on: SORVU* (non-PPOi herbicide tolerant); test: as above; format: in vivo, Sorghum vulgare
Protocol: as §1, §2, §3, §4, §5, §13, §14

COMBE = test: Post-emergence application in greenhouse trials; format: in vivo, Commelina benghalensis; conditions: growth stage 21, 1% MSO
Protocol: as §1, §2, §3, §7, §8, §9, §10, §11, §12

AVEST = test: Post-emergence application in field trials (Examples 2 and 3); format: in vivo, Avena stirilis; conditions: growth stage 12-22, B-1 solo 25 g ai/ha, 14 DAT, 1% v/ MSO
Protocol: as §1, §2, §3, §4, §5, §6

DIGSA = test: as above; format: in vivo, Digitaria sanguinales
Protocol: as §1, §2, §3, §4, §5, §13, §14

## CC(C)N(C)S(=O)(=O)NC(=O)c1cc(-n2c(=O)cc(C(F)(F)F)n(C)c2=O)c(F)cc1Cl [B-1, saflufenacil]
CYPES
  % Herbicidal activity: 25%
SETFA; B-1 0.5 g ai/ha
  % Herbicidal activity: 10%
SETFA; B-1 0.8 g ai/ha
  % Herbicidal activity: 15%
SETFA; B-1 0.9 g ai/ha
  % Herbicidal activity: 15%
SETFA; B-1 1.1 g ai/ha
  % Herbicidal activity: 35%
BIDPI
  % Herbicidal activity: 5%
IPOTR
  % Herbicidal activity: 43%
SETIT
  % Herbicidal activity: 23%
STEME
  % Herbicidal activity: 53%
AMATA; B-1 0.2 g ai/ha
  % Herbicidal activity: 70%
AMATA; B-1 0.3 g ai/ha
  % Herbicidal activity: 85%
AVEFA; AVEFA, growth stage 15-16, height 25-38 cm, B-1 solo 25 g ai/ha, 16 DAT
  % Herbicidal activity: 3%
AVEFA; B-1 18 g ai/ha, 28 DAT, growth stage 14-15, height 9-16 cm, field, 100 l/ha water
  % Herbicidal activity: 0%
AVEFA; B-1 18 g ai/ha, 29 DAT, growth stage 14-23, height 24-40 cm, field, 100 l/ha water
  % Herbicidal activity: 0%
LAMAN
  % Herbicidal activity: 40%
ECHCG; B-1 12.5 g ai/ha, 14 DAT, growth stage 14-19, height 2-8 cm, field, 140 l/ha water, 1% MSO + 2.5% ammoniumsulfate
  % Herbicidal activity: 40%
ECHCG; B-1 25 g ai/ha, 21 DAT, height 12.5-30 cm, field, 1% v/v MSO and 1% w/v ammoniumsulfate
  % Herbicidal activity: 23%
ECHCG; ECHCG, growth stage 21-23, height 43-44 cm, B-1 solo 25 g ai/ha, 21 DAT, 1% Dash ® HC
  % Herbicidal activity: 27%
LOLRI
  % Herbicidal activity: 20%
[1]; B-1 25 g ai/ha, 25 DAT, growth stage 14-15, field, 0.25 l/ha Dash MSO Max ®
  % Herbicidal activity: 3%
[1]; SORVU* (non-PPOi herbicide tolerant), height 21-31 cm, B-1 solo 25 g ai/ha, 22 DAT, 1% v/v MSO
  % Herbicidal activity: 13%
COMBE; B-1 0.2 g ai/ha, 6 DAT
  % Herbicidal activity: 15%
COMBE; B-1 0.2 g ai/ha, 20 DAT
  % Herbicidal activity: 5%
COMBE; B-1 0.8 g ai/ha, 20 DAT
  % Herbicidal activity: 75%
AVEST
  % Herbicidal activity: 0%
DIGSA; B-1 12.5 g ai/ha, 21 DAT, height 3-12 cm, 140 l/ha water, 1% MSO + 2.5% ammoniumsulfate
  % Herbicidal activity: 20%
DIGSA; B-1 25 g ai/ha, 19 DAT, growth stage 13-19, height 2.5-7.5 cm, 1% v/v MSO and 1% w/v ammoniumsulfate
  % Herbicidal activity: 23%

— patent US20250040548A1, “Herbicidal compositions comprising saflufenacil” (BASF SF, priority 2023, published 2025)
